The results in this text go back to patent US20110223177A1, “TREATMENT OF FIBROTIC EYE DISORDERS” (UNIVERSITY OF EAST ANGLIA, priority 2008, published 2011).

The subject of experiment [1] is human lens epithelial cell line FHL124. Briefly: FHL124 patch growth/contraction assay. It is filed as cell-based. To be noted: FHL 124 patches. Here is the method:
FIG. 3. TGF-β-induced matrix contraction is suppressed by the MLCK inhibitor ML7. FHL 124 cells were seeded to form patches and maintained in the following conditions: EMEM (Eagle's minimal essential medium—standard culture medium) supplemented with 5% FCS (fetal calf serum—control)±15 μM ML7 (myosin light chain kinase inhibitor) (Calbiochem) for a 72 hour experimental period. In the graph, each left hand bar of the bar pairs reports the result in the absence of ML7 (indicated as “−15 uM ML-7” in the key) and the right hand bar reports the result in the presence of 15 μM ML7 (indicated as “[…]” in the key). Please note that numerical data can be obtained from these patches, which can be scrutinized by statistical analysis.
FIG. 4. TGF-β-induced matrix contraction is promoted by the MLCP inhibitor tautomycin (Calbiochem). FHL 124 cells were seeded to form patches and maintained in the following conditions: EMEM (standard culture medium) supplemented with 5% FCS (control)±50 nM tautomycin (myosin phosphatase inhibitor); control+10 ng/ml TGFβ1±50 nM tautomycin; control+10 ng/ml TGFβ2±50 nM tautomycin for a 48 hour experimental period. […]
FHL124 cells were seeded at 4 sites on a tissue culture dish at 5000 cells per site and maintained in EMEM supplemented with 5% FCS until confluent regions spanning approximately 5 mm developed. […] The cells were then washed in PBS and stained with Coomassie brilliant blue (a total protein dye) for 30 minutes to enable patches to be visualised and measured. […] Images of patches were captured on a CCD camera using GeneSnap and analysed using Scion image. After the patch area was measured, PBS medium was aspirated from the culture dish and replaced with 1 ml of 70% ethanol allowing Coomassie blue dye within the cells to be dissolved. […] A 200 μl sample of dye from each dish was placed in a clear plastic 96 well microtitre plate and the absorbance read at 550 nm using a plate reader. […]

Experiment [2] concerns phosphorylated (active) myosin in FHL124 cells. Briefly: Western blot detection of phosphorylated (active) myosin in response to TGF-β. To be noted: 15 μM ML7, 10 ng/ml TGF-β2, FHL124 cells. It is filed as cell-based, human. The procedure: FIG. 2. Western blot detection of phosphorylated (active) myosin in response to 10 ng/ml TGF-β2 (Sigma, Poole, Dorset, UK). The data presented are pooled from 3 separate experiment. Each left hand bar of the bar pairs reports the result in the absence of ML7 (indicated as “−15 uM ML-7” in the key) and the right hand bar reports the result in the presence of 15 μM ML7 (indicated as “+15 uM ML-7” in the key). Beta actin was used as a control for equivalent protein amounts. * Indicates a significant difference from untreated control group (p<0.05; student's t-test).
FHL-124 cells were washed with 1.5 ml PBS then lysed on ice in 0.5 mls Daubs lysis buffer; (50 mM HEPES pH 7.5, 150 mM NaCl, 1% Triton X-100, 1 mM EDTA, 10% glycerol, 10 mM sodium pyrophosphate, 2 mM sodium orthovanadate, 10 mM sodium fluoride, 250 mls ddH2O, 1 mM phenylmethylsulfonylfluoride and 10 μg/ml aprotinin. Lysates were pre-cleared by centrifuging at 13000 rpm at 4° C. for 10 min, and the protein content of the soluble fraction will be assayed by Bicinchoninic (BCA) protein assay. Equal amounts of protein per sample were loaded onto 10% SDS-PAGE gels for electrophoresis and transferred onto a polyvinylidene fluoride (PVDF) membrane with a BIO-RAD Trans-Blot semi-dry Transfer Cell. […] Gels were scanned using an HP scanjet 5470c and band intensity determined with Kodak 1D 3.5 software.

Another experiment has as its system human lens capsular bags. Briefly: Human lens capsular bag model. It is filed as cell-based. The procedure:
FIG. 7. The effect of MLCK inhibition (using 15 μM ML7) on cell coverage of the previously cell-free posterior capsule of human capsular bags following 7 days of culture. The data represent Mean SEM (n=4). * Indicates a significant difference from control group. N.B. Control conditions are EMEM supplemented with 5% serum and 10 ng/ml TGFβ.
FIG. 8. High (top row) and low power (bottom row) phase-contrast micrographs showing cells growing on the lens capsular bag treated with 10 ng/mL TGF-β in the presence or absence of ML7 (15 μM). Contraction (wrinkles) of the lens capsular bag is evident when treated with 10 ng/ml TGF-β alone.
The model first described by Liu, C. S. C., et al., (Invest. Ophthalmol. Vis. Sci. (1996), 37, pages, 906-914) was employed. Following removal of corneo-scleral discs for transplantation purposes, human donor eyes from the East Anglian Eye Banks, UK (obtained with full ethical approval—COREC form approved 1 Dec. 2004. Ref04/Q0102/57) were used to perform a sham cataract operation. The resulting capsular bag was then dissected free of the zonules and secured on a sterile 35 mm polymethylmethacrylate (PMMA) petri dish. […] Coverage and matrix modification of the previously cell-free posterior capsule were captured on a daily basis using low-power phase microscopy and quantified using analysis software. […]

In experiment [3] the test system is cells growing on the lens capsular bag. Briefly: Immunocytochemical analysis of capsular bags at end point. It is filed as cell-based, human. To be noted: 15 μM ML7, 10 ng/ml TGF-β. Here is the method:
FIG. 9. […] The fields of view represent 448×342 μm.
Preparations were fixed for 30 minutes in 4% formaldehyde in PBS and permeabilised in PBS containing 0.5% Triton-X100, also for 30 minutes. Anti-CPI-17 and Anti-alpha smooth muscle actin was diluted 1:100 and applied for 60 min at 35° C., followed by washing. CPI-17 was visualised with ALEXA 488-conjugated secondary antibodies (Molecular Probes, Leiden, Netherlands). The F-actin cytoskeleton was stained with Texas Red-X-phalloidin and chromatin using DAPI (Molecular Probes, Leiden, Netherlands) for 10 min at room temperature. The stained preparations were again washed extensively, floated onto microscope slides and mounted in Hydromount mounting medium (National Diagnostics, Hull, UK). Images were viewed with a Zeiss epifluorescence microscope and Axiovision software.
From the work on the cell line we chose to test ML7 i.e. the MLCK inhibitor. These studies were carried out on separate donors using a match paired format; one capsular bag was maintained in TGF-β and serum supplemented medium, while the other was maintained in TGF-β and serum supplemented medium plus 15 μM ML7. There is great consistency in cell behaviour from one eye to another from an individual donor; therefore the effects observed are due to the presence or absence of the inhibitor. […] This growth inhibition could be useful in the treatment of PCO as growth across the capsule is a critical component in the development of the condition, but this is a retardation of cell growth rather than ablation. […] In addition, we have carried out immunocytochemical analysis of the capsular bags at end point (FIG. 9).

The structures appear in SMILES notation. “Also recorded” adds a separate entry of the source.

With `O=S(=O)(c1cccc2c(I)cccc12)N1CCCNCC1` [ML7, (5-iodonaphthalene-1-sulfonyl)homopiperazine], the TGF-β-induced matrix contraction entry in experiment [1] (15 μM ML7, 72 hour, EMEM + 5% FCS) is given as “significantly suppresses TGF-β-induced contraction; also recorded: significant reduction of TGF-β-induced contraction”. Moreover, the “TGFβ-induced myosin activation (phosphorylated myosin)” value in experiment [2] is given as “significantly inhibited TGFβ-induced myosin activation”. For the same compound, in the experiment with human lens capsular bags (15 μM ML7, 10 ng/ml TGF-β), the “TGF-β-induced matrix contraction (wrinkles) of the lens capsular bag” value is listed as “does not give rise to wrinkle formation; also recorded: can suppress TGF-β-induced matrix contraction”. For the same compound, in the experiment on human lens capsular bags (15 μM ML7, 7 days of culture, EMEM + 5% serum + 10 ng/ml TGFβ, control group 100% cover), the “cell coverage of the previously cell-free posterior capsule” value worked out at 80%. In addition, in experiment [3], the “distribution of cell nuclei” value is recorded as “even distribution of cell nuclei”, the “general organization of the cells” value is on record as “cobblestone appearance” and the “αSMA levels versus control bags” value is recorded as “similar”.

Regarding `CO[C@H]([C@H](O)CC(=O)[C@@H](C)[C@@H](O)CC[C@@H](C)[C@@H]1O[C@]2(CC[C@@H](C)[C@H](CC[C@H](C)C(C)=O)O2)CC[C@@H]1C)[C@H](OC(=O)C[C@@H](O)C1=C(C)C(=O)OC1=O)C(C)C` [tautomycin], the TGF-β-induced matrix contraction entry is “speeded up the rate of contraction” in experiment [1] (50 nM tautomycin, 10 ng/ml TGFβ1 or TGFβ2, 48 hour) and “significantly increases TGF-β-induced contraction” in experiment [1] (50 nM tautomycin, 10 ng/ml TGFβ1 or TGFβ2, 48 hour, listed as Tautomycin).
